Measurements published in US9340537B2, “Benzamide derivatives for inhibiting the activity of ABL1, ABL2 and BCR-ABL1” (NOVATIS AG, priority 2012, dated 2016).

Key:
[1] = target: T1, ABL1 (64-515) (Homo sapiens (Human), UniProt P00519); experiment: Radio ABL1 (64-515) radiometric filter-binding kinase assay; assay type: biochemical; conditions: 20 μM ATP
[2] = target: T1, ABL1 (64-515); experiment: Caliper ABL1 (64-515) microfluidic mobility shift kinase assay; conditions: read-out: Caliper ABL1 (64-515) IC50

T1 sequence (P00519 64-515): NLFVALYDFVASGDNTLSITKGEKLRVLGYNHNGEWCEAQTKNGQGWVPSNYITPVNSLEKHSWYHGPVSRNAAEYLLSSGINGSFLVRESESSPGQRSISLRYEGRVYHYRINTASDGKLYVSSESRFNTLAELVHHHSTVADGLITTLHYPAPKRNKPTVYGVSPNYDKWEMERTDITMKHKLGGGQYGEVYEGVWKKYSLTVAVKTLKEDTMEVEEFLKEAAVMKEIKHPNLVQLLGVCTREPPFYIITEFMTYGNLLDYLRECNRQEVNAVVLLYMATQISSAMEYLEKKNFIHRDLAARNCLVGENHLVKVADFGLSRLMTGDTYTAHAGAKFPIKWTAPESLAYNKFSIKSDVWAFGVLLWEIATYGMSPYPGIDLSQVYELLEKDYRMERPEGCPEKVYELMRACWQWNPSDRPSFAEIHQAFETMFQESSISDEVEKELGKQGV

Row | IC50 [1] [nM] | IC50 [2] [nM] | SMILES
1 | 1 | 0.4 | NC12CC1CN(c1ncc(C(=O)Nc3ccc(OC(F)(F)Cl)cc3)cc1-c1ccn[nH]1)C2 (stereo not shown) [Example 54, 6-(1-Amino-3-azabicyclo[3.1.0]hexan-3-yl)-N-(4-(chlorodifluoromethoxy)phenyl)-5-(1H-pyrazol-5-yl)nicotinamide]
2 | 19 | 7.1 | N#Cc1cc(-c2cc(C(=O)Nc3ccc(OC(F)(F)F)cc3)cnc2N2CCCC2)[nH]n1 [Example 44, 5-(3-Cyano-1H-pyrazol-5-yl)-6-(pyrrolidin-1-yl)-N-(4-(trifluoromethoxy)phenyl)nicotinamide]
3 | 5.8 | 3.4 | O=C(Nc1ccc(OC(F)(F)Cl)cc1)c1cnc(N2CCN(C3CC3)CC2)c(-c2ccn[nH]2)c1 [Example 57, N-(4-(Chlorodifluoromethoxy)phenyl)-6-(4-cyclopropylpiperazin-1-yl)-5-(1H-pyrazol-5-yl)nicotinamide]
4 | < 3 | – | O=C(Nc1ccc(OC(F)(F)F)cc1)c1cnc(N2CC[C@@H](O)C2)c(-c2csc(CO)c2)c1 [Example 12, (R)-5-(5-(Hydroxymethyl)thiophen-3-yl)-6-(3-hydroxypyrrolidin-1-yl)-N-(4-(trifluoromethoxy)phenyl)nicotinamide]
5 | 1 | < 0.64 | O=C(Nc1ccc(OC(F)(F)Cl)cc1)c1cnc(N2CCN(CC(F)(F)F)CC2)c(-c2ccn[nH]2)c1 [Example 60, N-(4-(Chlorodifluoromethoxy)phenyl)-5-(1H-pyrazol-5-yl)-6-(4-(2,2,2-trifluoroethyl)piperazin-1-yl)nicotinamide]
6 | – | 5.1 | O=C(Nc1ccc(OC(F)(F)Cl)cc1)c1cnc(NC[C@H](O)CCO)c(-c2ccn[nH]2)c1 [Example 99, (R)—N-(4-(Chlorodifluoromethoxy)phenyl)-6-((2,4-dihydroxybutyl)amino)-5-(1H-pyrazol-5-yl)nicotinamide]
7 | 3 | 4.2 | O=C(Nc1ccc(OC(F)(F)F)cc1)c1ccc(N2C[C@H](O)[C@@H](O)C2)c(-c2ccc[nH]2)c1 [Example 28, 4-((3S,4S)-3,4-Dihydroxypyrrolidin-1-yl)-3-(1H-pyrrol-2-yl)-N-(4-(trifluoromethoxy)phenyl)benzamide]
8 | 4 | 0.2 | NC1CN(c2ncc(C(=O)Nc3ccc(OC(F)(F)Cl)cc3)cc2-c2ccn[nH]2)C1 [Example 64, 6-(3-Aminoazetidin-1-yl)-N-(4-(chlorodifluoromethoxy)phenyl)-5-(1H-pyrazol-5-yl)nicotinamide]
9 | 2 | 0.8 | Cc1cc(-c2cc(C(=O)Nc3ccc(OC(F)(F)Cl)cc3)ccc2N2C[C@H](N)[C@@H](O)C2)[nH]n1 [Example 84, 4-((3S,4S)-3-Amino-4-hydroxypyrrolidin-1-yl)-N-(4-(chlorodifluoromethoxy)phenyl)-3-(3-methyl-1H-pyrazol-5-yl)benzamide]
10 | 1.5 | 0.8 | CC1(O)CN(c2ncc(C(=O)Nc3ccc(OC(F)(F)Cl)cc3)cc2-c2ccn[nH]2)C1 [Example 66, N-(4-(Chlorodifluoromethoxy)phenyl)-6-(3-hydroxy-3-methylazetidin-1-yl)-5-(1H-pyrazol-5-yl)nicotinamide]
11 | 4 | 4.2 | CO[C@H]1CN(c2ccc(C(=O)Nc3ccc(OC(F)(F)F)cc3)cc2-c2cncs2)C[C@@H]1O (relative stereo) [Example 4, 4-(trans-3-Hydroxy-4-methoxypyrrolidin-1-yl)-3-(thiazol-5-yl)-N-(4-(trifluoromethoxy)phenyl)benzamide]
12 | – | 3.7 | O=C(Nc1ccc(OC(F)(F)F)cc1)c1cnc(N2C[C@H](O)[C@@H](F)C2)c(-c2ccn[nH]2)c1 (relative stereo) [Example 74, 6-(trans-3-Fluoro-4-hydroxypyrrolidin-1-yl)-5-(1H-pyrazol-5-yl)-N-(4-(trifluoromethoxy)phenyl)nicotinamide]
13 | – | 6.6 | O=C(Nc1ccc(OC(F)(F)Cl)cc1)c1cnc(NCCC(O)CO)c(-c2ccn[nH]2)c1 (stereo not shown) [Example 100, N-(4-(Chlorodifluoromethoxy)phenyl)-6-((3,4-dihydroxybutyl)amino)-5-(1H-pyrazol-5-yl)nicotinamide]
14 | < 3 | – | Cc1ncc(-c2cc(C(=O)Nc3ccc(OC(F)(F)F)cc3)cnc2N2CC[C@@H](O)C2)s1 [Example 11, (R)-6-(3-Hydroxypyrrolidin-1-yl)-5-(2-methylthiazol-5-yl)-N-(4-(trifluoromethoxy)phenyl)nicotinamide]
15 | 26 | 3.3 | O=C(Nc1ccc(OC(F)(F)Cl)cc1)c1cnc(N2CCN(CC(F)F)CC2)c(-c2ccn[nH]2)c1 [Example 59, N-(4-(Chlorodifluoromethoxy)phenyl)-6-(4-(2,2-difluoroethyl)piperazin-1-yl)-5-(1H-pyrazol-5-yl)nicotinamide]
16 | < 3 | 5 | CN(CCO)c1ccc(C(=O)Nc2ccc(OC(F)(F)F)cc2)cc1-c1cncs1 [Example 20, 4-((2-Hydroxyethyl)(methyl)amino)-3-(thiazol-5-yl)-N-(4-(trifluoromethoxy)phenyl)benzamide]

Row | IC50 [1] [nM] | IC50 [2] [nM] | SMILES
17 | 3 | 3.4 | N[C@@H]1CN(c2ncc(C(=O)Nc3ccc(OC(F)(F)Cl)cc3)cc2-c2ccn[nH]2)C[C@H]1F (relative stereo) [Example 52, 6-(trans-3-Amino-4-fluoropyrrolidin-1-yl)-N-(4-(chlorodifluoromethoxy)phenyl)-5-(1H-pyrazol-5-yl)nicotinamide]
18 | < 0.1 | < 0.13 | N#Cc1ccc(-c2cc(C(=O)Nc3ccc(OC(F)(F)F)cc3)cnc2N2C[C@H](O)[C@@H](O)C2)[nH]1 [Example 31, 5-(5-Cyano-1H-pyrrol-2-yl)-6-((3S,4S)-3,4-dihydroxypyrrolidin-1-yl)-N-(4-(trifluoromethoxy)phenyl)nicotinamide]
19 | – | 13 | O=C(Nc1ccc(OC(F)(F)Cl)cc1)c1cnc(NCC[C@@H](O)CO)c(-c2ccn[nH]2)c1 [Example 102, (R)—N-(4-(Chlorodifluoromethoxy)phenyl)-6-((3,4-dihydroxybutyl)amino)-5-(1H-pyrazol-5-yl)nicotinamide]
20 | 1 | 0.4 | N#Cc1ccc(-c2cc(C(=O)Nc3ccc(OC(F)(F)Cl)cc3)cnc2N2C[C@H](O)[C@@H](O)C2)[nH]1 [Example 46, N-(4-(Chlorodifluoromethoxy)phenyl)-5-(5-cyano-1H-pyrrol-2-yl)-6-((3S,4S)-3,4-dihydroxypyrrolidin-1-yl)nicotinamide]
21 | – | 23 | O=C(O)CCNc1ncc(C(=O)Nc2ccc(OC(F)(F)Cl)cc2)cc1-c1ccn[nH]1 [Example 94, 3-((5-((4-(Chlorodifluoromethoxy)phenyl)carbamoyl)-3-(1H-pyrazol-5-yl)pyridin-2-yl)amino)propanoic acid]
22 | 10 | – | O=C(Nc1ccc(OC(F)(F)F)cc1)c1cnc(N2CC[C@@H](O)C2)c(-c2nccs2)c1 [Example 9, (R)-6-(3-Hydroxypyrrolidin-1-yl)-5-(thiazol-2-yl)-N-(4-(trifluoromethoxy)phenyl)nicotinamide]
23 | – | 0.4 | NCC1(O)CCN(c2ncc(C(=O)Nc3ccc(OC(F)(F)Cl)cc3)cc2-c2ccn[nH]2)C1 (stereo not shown) [Example 83, 6-(3-(Aminomethyl)-3-hydroxypyrrolidin-1-yl)-N-(4-(chlorodifluoromethoxy)phenyl)-5-(1H-pyrazol-5-yl)nicotinamide]
24 | 5.5 | – | O=C(Nc1ccc(OC(F)(F)Cl)cc1)c1cnc(N2CCC(F)(F)C2)c(-c2ccn[nH]2)c1 [Example 48, N-(4-(Chlorodifluoromethoxy)phenyl)-6-(3,3-difluoropyrrolidin-1-yl)-5-(1H-pyrazol-5-yl)nicotinamide]
25 | – | 3.3 | O=C(Nc1ccc(OC(F)(F)F)cc1)c1cnc(N2CCCC2)c(-c2cc(CO)n[nH]2)c1 [Example 43, 5-(3-(Hydroxymethyl)-1H-pyrazol-5-yl)-6-(pyrrolidin-1-yl)-N-(4-(trifluoromethoxy)phenyl)nicotinamide]
26 | 9 | – | O=C(Nc1ccc(OC(F)(F)F)cc1)c1cnc(N2CC[C@@H](O)C2)c(-c2cnoc2)c1 [Example 8, (R)-6-(3-Hydroxypyrrolidin-1-yl)-5-(isoxazol-4-yl)-N-(4-(trifluoromethoxy)phenyl)nicotinamide]
27 | – | 5.3 | O=C(Nc1ccc(OC(F)(F)Cl)cc1)c1cnc(NCCC(O)C(=O)O)c(-c2ccn[nH]2)c1 (stereo not shown) [Example 96, 4-((5-((4-(Chlorodifluoromethoxy)phenyl)carbamoyl)-3-(1H-pyrazol-5-yl)pyridin-2-yl)amino)-2-hydroxybutanoic acid]
28 | – | 47 | O=C(O)CCNc1ncc(C(=O)Nc2ccc(OC(F)(F)F)cc2)cc1-c1ccn[nH]1 [Example 95, 3-((3-(1H-Pyrazol-5-yl)-5-((4-(trifluoromethoxy)phenyl)carbamoyl)pyridin-2-yl)amino)propanoic acid]
29 | – | 5.7 | O=C(Nc1ccc(OC(F)(F)Cl)cc1)c1cnc(NC[C@@H](O)CCO)c(-c2ccn[nH]2)c1 [Example 98, (S)—N-(4-(Chlorodifluoromethoxy)phenyl)-6-((2,4-dihydroxybutyl)amino)-5-(1H-pyrazol-5-yl)nicotinamide]
30 | – | 5.7 | O=C(Nc1ccc(OC(F)(F)Cl)cc1)c1cnc(NCC(O)CCO)c(-c2ccn[nH]2)c1 (stereo not shown) [Example 97, N-(4-(Chlorodifluoromethoxy)phenyl)-6-((2,4-dihydroxybutyl)amino)-5-(1H-pyrazol-5-yl)nicotinamide]
31 | – | 7.8 | O=C(Nc1ccc(OC(F)(F)Cl)cc1)c1cnc(NCC[C@H](O)CO)c(-c2ccn[nH]2)c1 [Example 101, (S)—N-(4-(Chlorodifluoromethoxy)phenyl)-6-((3,4-dihydroxybutyl)amino)-5-(1H-pyrazol-5-yl)nicotinamide]
32 | 1.3 | – | O=C(Nc1ccc(OC(F)(F)Cl)cc1)c1cnc(N2CCC3(CNC3)C2)c(-c2ccn[nH]2)c1 [Example 50, N-(4-(Chlorodifluoromethoxy)phenyl)-5-(1H-pyrazol-5-yl)-6-(2,6-diazaspiro[3.4]octan-6-yl)nicotinamide]
